Laboratory results: the NIST ThermoML archive (doi:10.1016/j.jct.2013.08.018)
Values joined by “and” are separate entries in the source; they are usually repeats but may differ in a detail not shown here. Equal entries are not always repeated. Numbers after ± are expanded uncertainties.

Test: osmotic coefficient (dimensionless); mn = molality of the nth substance listed, in mol/kg
Conditions: 298.15 K, 101 kPa, Liquid
[1] = commercial osmometer Knauer K-7000, m1 = 1
[2] = commercial osmometer Knauer K-7000, m1 = 3
[3] = commercial osmometer Gonotec 070, m1 = 0.5
[4] = commercial osmometer Gonotec 070, m1 = 1

| Compound | osmotic coefficient [1] | osmotic coefficient [2] | osmotic coefficient [3] | osmotic coefficient [4] |
| --- | --- | --- | --- | --- |
| [Cl-].[K+] [potassium chloride] + O | 0.895 and 0.897 | 0.938 and 0.935 and 0.936 | 0.905 ± 0.011 | 0.915 ± 0.01 |
| [I-].[K+] [potassium iodide] + O | – | – | 0.916 and 0.923 | 0.934 and 0.927 |
| O=[N+]([O-])[O-].[K+] [potassium nitrate] + O | 0.746 and 0.744 and 0.747 | 0.599 and 0.597 and 0.598 | – | – |
| [Cl-].[Na+] [sodium chloride] + O | 0.927 and 0.925 | 1.05 | – | – |
| [I-].[Na+] [sodium iodide] + O | – | – | 0.955 and 0.95 | 0.985 and 1 |
| O=[N+]([O-])[O-].[Na+] [sodium nitrate] + O | 0.854 and 0.859 | 0.805 and 0.806 | 0.895 and 0.874 | 0.865 and 0.867 |

Further lines, results first:

| osmotic coefficient [1] | osmotic coefficient [2] | osmotic coefficient [3] | osmotic coefficient [4] | Compound |
| --- | --- | --- | --- | --- |
| 0.643 and 0.64 and 0.641 | 0.629 and 0.627 and 0.625 | – | – | N.N.O=S(=O)(O)O [ammonium sulfate] + O |
| – | – | 0.978 and 0.97 | 1.03 and 1.04 | [Br-].[Li+] [lithium bromide] + O |
| – | – | 0.928 and 0.955 | 0.987 and 0.978 | [Cl-].[Li+] [lithium chloride] + O |
| – | – | 1 and 1.01 | 1.07 and 1.01 | [I-].[Li+] [lithium iodide] + O |
| – | – | 0.907 and 0.905 | 0.919 and 0.917 | [Br-].[K+] [potassium bromide] + O |
| – | – | 0.953 and 0.934 | 0.959 and 0.971 | [Br-].[Na+] [sodium bromide] + O |
| – | – | 0.717 and 0.69 | 0.658 and 0.642 | O=S(=O)([O-])[O-].[Na+].[Na+] [sodium sulfate] + O |
